The numbers were not newly measured in US20190231888A1, “TEXAPHYRIN AND ANTITUMOR ANTIBIOTIC CONJUGATES” (priority 2016, published 2019), which cites them from elsewhere.

For this data set the following is noted: intravenous, determined in one study; cited from earlier work.

In the case of lutetium texaphyrin, the maximum tolerated dose is recorded as 5.2 mg/kg.
